Tests used:
downy bromegrass = experiment: Test C postemergence herbicide test; format: in vivo, Bromus tectorum
Outline: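 Postemergence sprays were applied to plants 2 to 18 cm tall (1- to 4-leaf stage); in the flooded paddy test, barnyardgrass was grown to the 2-leaf stage. After 12 to 14 days in a greenhouse, injury was visually rated against untreated controls on a 0–100 scale (100 = complete control).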

bermudagrass = experiment: Test E pre-/postemergence herbicide test; format: in vivo, Cynodon dactylon; settings: Preemergence
Outline: (§1)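 Seeds were planted and treated preemergence with test chemicals in a non-phytotoxic solvent mixture containing surfactant; plants at 2 to 18 cm (1- to 4-leaf stage) received postemergence applications of the same formulation. After 12 to 14 days in a greenhouse, injury was visually rated against untreated controls on a 0 to 100 scale.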

Surinam grass = experiment: Test E pre-/postemergence herbicide test; format: in vivo, Urochloa decumbens; settings: Preemergence
Outline: as §1

pitted morningglory = experiment: Test E pre-/postemergence herbicide test; format: in vivo, Ipomoea lacunosa; settings: Preemergence
Outline: as §1

purple nutsedge = experiment: Test E pre-/postemergence herbicide test; format: in vivo, Cyperus rotundus; settings: Preemergence
Outline: as §1

mustard = experiment: Test E pre-/postemergence herbicide test; format: in vivo, Brassica nigra; settings: Preemergence
Outline: as §1

guineagrass = experiment: Test E pre-/postemergence herbicide test; format: in vivo, Panicum maximum; settings: Preemergence
Outline: as §1

Italian ryegrass = experiment: Test E pre-/postemergence herbicide test; format: in vivo, Lolium multiflorum; settings: Preemergence
Outline: as §1

broadleaf signalgrass = experiment: Test E pre-/postemergence herbicide test; format: in vivo, Brachiaria platyphylla; settings: Preemergence
Outline: as §1

common chickweed = experiment: Test E pre-/postemergence herbicide test; format: in vivo, Stellaria media; settings: Preemergence
Outline: as §1

Canada horseweed = experiment: Test E pre-/postemergence herbicide test; format: in vivo, Erigeron Canadensis; settings: Preemergence
Outline: as §1

common mallow = experiment: Test E pre-/postemergence herbicide test; format: in vivo, Malva sylvestris; settings: Preemergence
Outline: as §1

[1] = Postemergence, 250 g ai/ha, scale 0 to 100, 0 no effect, 100 complete control
[2] = postemergence, 125 g ai/ha, scale 0 to 100
[3] = postemergence, 31 g ai/ha, scale 0 to 100
[4] = postemergence, 62 g ai/ha, scale 0 to 100
[5] = 250 g ai/ha, scale 0 (no effect) to 100 (complete control)
[6] = 500 g ai/ha, scale 0 (no effect) to 100 (complete control)

## CCc1nn(C(C)(C)C)nc1C(=O)Nc1cccc(C(=O)N(C)CC)c1 [Compound 384]
Downy bromegrass; [1]
  Plant response rating, Bromegrass, Downy: 55
Downy bromegrass; [2]
  Plant response rating, Bromegrass, Downy: 45
Downy bromegrass; [3]
  Plant response rating, Bromegrass, Downy: 30
Downy bromegrass; [4]
  Plant response rating, Bromegrass, Downy: 40
bermudagrass; 62 g ai/ha, scale 0 to 100
  Plant response rating, Bermudagrass: 80
bermudagrass; 125 g ai/ha, scale 0 to 100
  Plant response rating, Bermudagrass: 95
bermudagrass; [5]
  Plant response rating, Bermudagrass: 95
bermudagrass; [6]
  Plant response rating, Bermudagrass: 95
Surinam grass; 125 g ai/ha, scale 0 to 100
  Plant response rating, Surinam Grass: 60
Surinam grass; [6]
  Plant response rating, Surinam Grass: 95
Pitted morningglory; 62 g ai/ha, scale 0 to 100
  Plant response rating, Morningglory: 10
Pitted morningglory; 125 g ai/ha, scale 0 to 100
  Plant response rating, Morningglory: 60
Pitted morningglory; [5]
  Plant response rating, Morningglory: 80
Pitted morningglory; [6]
  Plant response rating, Morningglory: 90
Purple nutsedge; 62 g ai/ha, scale 0 to 100
  Plant response rating, Nutsedge, Purple: 60
mustard; 62 g ai/ha, scale 0 to 100
  Plant response rating, Black Mustard: 60
mustard; 125 g ai/ha, scale 0 to 100
  Plant response rating, Black Mustard: 80
mustard; [5]
  Plant response rating, Black Mustard: 85
mustard; [6]
  Plant response rating, Black Mustard: 100
guineagrass; 62 g ai/ha, scale 0 to 100
  Plant response rating, Guineagrass: 95
guineagrass; 125 g ai/ha, scale 0 to 100
  Plant response rating, Guineagrass: 95
guineagrass; [5]
  Plant response rating, Guineagrass: 95
guineagrass; [6]
  Plant response rating, Guineagrass: 100
Italian ryegrass; 62 g ai/ha, scale 0 to 100
  Plant response rating, Ryegrass, Italian: 20
Italian ryegrass; 125 g ai/ha, scale 0 to 100
  Plant response rating, Ryegrass, Italian: 75
Italian ryegrass; [5]
  Plant response rating, Ryegrass, Italian: 80
Italian ryegrass; [6]
  Plant response rating, Ryegrass, Italian: 95
Broadleaf signalgrass; 62 g ai/ha, scale 0 to 100
  Plant response rating, Signalgrass: 10
Broadleaf signalgrass; 125 g ai/ha, scale 0 to 100
  Plant response rating, Signalgrass: 70
Broadleaf signalgrass; [5]
  Plant response rating, Signalgrass: 80
Broadleaf signalgrass; [6]
  Plant response rating, Signalgrass: 80
Common chickweed; 62 g ai/ha, scale 0 to 100
  Plant response rating, Chickweed: 75
Common chickweed; 125 g ai/ha, scale 0 to 100
  Plant response rating, Chickweed: 95
Common chickweed; [5]
  Plant response rating, Chickweed: 95
Common chickweed; [6]
  Plant response rating, Chickweed: 100
Canada horseweed; 125 g ai/ha, scale 0 to 100
  Plant response rating, Horseweed: 75
Canada horseweed; [5]
  Plant response rating, Horseweed: 95
Canada horseweed; [6]
  Plant response rating, Horseweed: 100
Common mallow; 62 g ai/ha, scale 0 to 100
  Plant response rating, Mallow: 50
Common mallow; 125 g ai/ha, scale 0 to 100
  Plant response rating, Mallow: 70
Common mallow; [5]
  Plant response rating, Mallow: 70
Common mallow; [6]
  Plant response rating, Mallow: 95

## Cc1nn(C(C)(C)C)nc1C(=O)Nc1cccc(C(=O)N2CC=CC2)c1 [Compound 393]
Downy bromegrass; [1]
  Plant response rating, Bromegrass, Downy: 55
Downy bromegrass; [2]
  Plant response rating, Bromegrass, Downy: 45
Downy bromegrass; [3]
  Plant response rating, Bromegrass, Downy: 40
Downy bromegrass; [4]
  Plant response rating, Bromegrass, Downy: 40
bermudagrass; 62 g ai/ha, scale 0 to 100
  Plant response rating, Bermudagrass: 40
bermudagrass; 125 g ai/ha, scale 0 to 100
  Plant response rating, Bermudagrass: 90
bermudagrass; [5]
  Plant response rating, Bermudagrass: 95
bermudagrass; [6]
  Plant response rating, Bermudagrass: 100
Surinam grass; 125 g ai/ha, scale 0 to 100
  Plant response rating, Surinam Grass: 20
Surinam grass; [6]
  Plant response rating, Surinam Grass: 70
Pitted morningglory; 62 g ai/ha, scale 0 to 100
  Plant response rating, Morningglory: 0
Pitted morningglory; 125 g ai/ha, scale 0 to 100
  Plant response rating, Morningglory: 60
Pitted morningglory; [5]
  Plant response rating, Morningglory: 95
Pitted morningglory; [6]
  Plant response rating, Morningglory: 95
Purple nutsedge; [5]
  Plant response rating, Nutsedge, Purple: 20
Purple nutsedge; [6]
  Plant response rating, Nutsedge, Purple: 100
mustard; 62 g ai/ha, scale 0 to 100
  Plant response rating, Black Mustard: 10
mustard; 125 g ai/ha, scale 0 to 100
  Plant response rating, Black Mustard: 80
mustard; [5]
  Plant response rating, Black Mustard: 95
mustard; [6]
  Plant response rating, Black Mustard: 95
guineagrass; 62 g ai/ha, scale 0 to 100
  Plant response rating, Guineagrass: 10
guineagrass; 125 g ai/ha, scale 0 to 100
  Plant response rating, Guineagrass: 70
guineagrass; [5]
  Plant response rating, Guineagrass: 90
guineagrass; [6]
  Plant response rating, Guineagrass: 95
Italian ryegrass; 62 g ai/ha, scale 0 to 100
  Plant response rating, Ryegrass, Italian: 10
Italian ryegrass; 125 g ai/ha, scale 0 to 100
  Plant response rating, Ryegrass, Italian: 20
Italian ryegrass; [5]
  Plant response rating, Ryegrass, Italian: 85
Italian ryegrass; [6]
  Plant response rating, Ryegrass, Italian: 85
Broadleaf signalgrass; 62 g ai/ha, scale 0 to 100
  Plant response rating, Signalgrass: 0
Broadleaf signalgrass; 125 g ai/ha, scale 0 to 100
  Plant response rating, Signalgrass: 30
Broadleaf signalgrass; [5]
  Plant response rating, Signalgrass: 75
Broadleaf signalgrass; [6]
  Plant response rating, Signalgrass: 85
Common chickweed; 125 g ai/ha, scale 0 to 100
  Plant response rating, Chickweed: 60
Common chickweed; [5]
  Plant response rating, Chickweed: 100
Common chickweed; [6]
  Plant response rating, Chickweed: 100
Canada horseweed; 62 g ai/ha, scale 0 to 100
  Plant response rating, Horseweed: 90
Canada horseweed; 125 g ai/ha, scale 0 to 100
  Plant response rating, Horseweed: 95
Canada horseweed; [5]
  Plant response rating, Horseweed: 100
Canada horseweed; [6]
  Plant response rating, Horseweed: 100
Common mallow; 62 g ai/ha, scale 0 to 100
  Plant response rating, Mallow: 10
Common mallow; 125 g ai/ha, scale 0 to 100
  Plant response rating, Mallow: 60
Common mallow; [5]
  Plant response rating, Mallow: 95
Common mallow; [6]
  Plant response rating, Mallow: 95
